This is an account of results in US20250223301A1, “KINASE INHIBITORS, PREPARATION METHODS AND USES THEREOF” (InventisBio Co., Ltd., priority 2022, published 2025).

For data set [1], the system named is PBMC. Briefly: Human PBMC IL-2 assay. Type of data set: cell-based. Particulars: anti-CD3/CD28 stimulation overnight, IL-2 level. In outline: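 Healthy-donor frozen PBMC were thawed, rested 4 h at 37 °C and plated at ~200,000 cells/well. Cells were preincubated 60 min at 37 °C with compound solution (10 uM to 0.6 nM, 8 points, 4-fold, as added), then stimulated overnight with anti-CD3/CD28. Supernatant IL-2 was quantified by immunoassay kit and plotted against log compound concentration.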

Data set [2] relates to whole blood from male C57BL6 mice. Briefly: Mouse whole blood IFN-gamma assay. Type of data set: cell-based. Particulars: anti-mouse CD3/CD28 0.6 ug/mL, 20 hours. The procedure:
The whole blood from male C57BL6 mice (6-8 weeks old, Beijing Vital River Laboratory Animal Technology Co., Ltd.) was collected, pooled and dispensed at 200 uL per well in a 96-well plate. The blood was treated with compounds for one hour at 37° C. in a humidified 5% CO2 incubator. The blood was then stimulated with anti-mouse CD3 and anti-mouse CD28 antibody (BioLegend Cat #100340, #102116) at a final concentration of 0.6 ug/mL for 20 hours at 37° C. in a humidified 5% CO2 incubator. The blood was spun down, IFN-gamma in the supernatants was measured using ELISA kit (Excellbio Cat #EM002-96, #EM007-96) according the manufacture's instruction.

Data set [3] concerns CT26 murine colorectal adenocarcinoma cells. Kind of data set: In vivo efficacy in CT26 syngeneic mouse tumor model. The note with it: CT26, BALB/c mice; 3 mg/kg PO QD. How it is done: Murine colorectal adenocarcinoma cells CT26 (purchased from ATCC) were cultured in RPMI 1640 medium with 10% FBS. For tumor implantation, 6-8 weeks old BALB/c female mice (Beijing Vital River Laboratory Animal Technology Co., Ltd.) were given a subcutaneous injection of CT26 cell (1×10^7 cells/mL) in 0.1 mL suspension into the right flank. Once tumors grew to a volume of 50-100 mm3, mice were randomized into different groups and treatment was initiated. Mice were treated orally once per day (PO, QD) with DGK inhibitors (3 mg/kg) or vehicle control. Anti-PD-1 antibody (BioXcell, Cat #BE0273), anti-CTLA4 antibody (BioXcell, Cat #BE0164) were diluted with PBS for dosing at 10 mg/kg or 5 mg/kg, respectively. Antibody was administrated via intraperitoneal injection, twice per week. Tumor volume and body weight of mice were recorded twice per week.
All animals were housed in a room maintained at 23:3° C., 65%-75% humidity, with a controlled 12 h light-dark cycle for 5-7 days before experiments. Water and commercial laboratory complete food for mice were provided in the cage.

The nature of data set [4]: Human microsomal clearance assay. Type of data set: in vitro ADME. Particulars: pH 7.4. The procedure:
This study aimed to assess the metabolic stability of a compound in human liver microsomes using a microsomal clearance assay.
A mixture containing 100 mM potassium phosphate, pH 7.4, 0.5 mg/mL liver microsomes, 2 mM NADPH, and 1 μM compound were prepared and added to 96-well plate. The plates were then incubated at 37 ? for different time points (0, 5, 15, 30, 45 minutes) and the reaction was stopped with acetonitrile solution containing an internal standard. The samples were then analyzed by LC/MS/MS to determine how much of the compound remained at each time point. The elimination rate constant and half-life were calculated from the data, and the in vitro intrinsic clearance (CLint) was determined as follows: […]

In data set [5] the test system is Jurkat cells. Kind of data set: Jurkat IL-2 assay. The note with it: Homo sapiens, anti-CD3/CD28 stimulation overnight, IL-2 level. Type of data set: cell-based. A digest of the protocol: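 Cells in RPMI-1640 with 10% FBS received compound solution (5 uM to 2.3 nM, 8 points, 3-fold dilution) for 60 minutes at 37° C. They were then stimulated overnight at 37° C. with anti-CD3/CD28 antibody. IL-2 in the supernatant was quantified by immunoassay kit and plotted against log compound concentration.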

In general, EC50 refers to the midpoint of the concentration-response curve. Lower therefore signals greater potency. Broadly, the CLint scaled is a measure of how fast metabolising enzymes remove a compound, apart from limits set by blood flow. High values mean faster metabolism, low ones greater metabolic stability. By half-life is commonly meant the time needed for the level to fall by half in the phase considered. High values mean slow loss, low ones fast loss. On to `CC[C@@H]1CN2c3c(c(=O)n(C)c4ccc(C#N)nc34)OC[C@@H]2CN1[C@@H](CC)c1ccc(Cl)c(Cl)c1` (stereo in doubt) [Compound 250], for which the figures for the EC50 in data set [1], in data set [2] and in data set [5] were 16 nM, 144 nM and 32 nM, respectively. The Tumor growth result in data set [3] was “inhibit tumor growth”. The CLint scaled at 1 μM in data set [4] (human, liver microsomes) stood at 12.3 mL/min/kg. The molecule further came in with a half-life at 1 μM in data set [4] (human liver microsomes 0.5 mg/mL, 1 uM compound) of 2.37 h.
